Experimental data: ChEMBL document CHEMBL4837185, “Emerimicins V-X, 15-Residue Peptaibols Discovered from an Acremonium sp. through Integrated Genomic and Chemical Approaches” (J Nat Prod, 2021)
Values after ≈ are worked out from the molar mass of the structure shown.

Tests used:
Staphylococcus aureus = experiment: Antibacterial activity against methicillin-resistant Staphylococcus aureus ATCC 1556 assessed as inhibition of bacterial growth measured after 16 to 20 hrs by CLSI broth microdilution method; type: functional; conditions: time 16-20 hrs
Pseudomonas aeruginosa = experiment: Antibacterial activity against Pseudomonas aeruginosa ATCC 27853 assessed as inhibition of bacterial growth measured after 16 to 20 hrs by CLSI broth microdilution method; type: functional; conditions: time 16-20 hrs
Enterococcus faecalis [1] = experiment: Antibacterial activity against Enterococcus faecalis ATCC 19433 assessed as inhibition of bacterial growth measured after 16 to 20 hrs by CLSI broth microdilution method; type: functional; conditions: time 16-20 hrs
Enterococcus faecalis [2] = experiment: Antibacterial activity against vancomycin-resistant Enterococcus faecalis ATCC 51299 assessed as inhibition of bacterial growth measured after 16 to 20 hrs by CLSI broth microdilution method; type: functional; conditions: time 16-20 hrs
[3] = Toxicity in zebra fish embryo assessed as mortality at 100 ug/ml incubated for 48 hrs; parameters: species or system Danio rerio; conditions: zebrafish, dose 100 µg/ml
[4] = Toxicity in zebra fish embryo assessed as survival rate at 100 ug/ml incubated for 48 hrs; parameters: species or system Danio rerio; conditions: zebrafish, zebrafish embryos, at 100 µg/mL
[5] = Toxicity in zebra fish embryo assessed as mortality at 33 ug/ml incubated for 48 hrs; parameters: species or system Danio rerio; conditions: zebrafish, dose 33 µg/ml

Compound	MIC (Staphylococcus aureus) [µg/mL]	MIC (Pseudomonas aeruginosa) [µg/mL]	MIC (Enterococcus faecalis [1]) [µg/mL]	MIC (Enterococcus faecalis [2]) [µg/mL]	Activity [3]	survival at 48 h, 100 ug/ml [4] [%]	Activity [5]
CC(=O)O[C@H]1C[C@@]2(C)[C@@H](CC[C@H]3[C@@]4(C)C=CC(=O)[C@@H](C)[C@@H]4[C@H](OC(C)=O)C(=O)[C@@]32C)/C1=C(\CCC=C(C)C)C(=O)O [HELVOLIC ACID]	4 (≈ 7.03 µM)	> 100	16 (≈ 28.1 µM)	8 (≈ 14.1 µM)			
GENTAMICIN	4	2	8	4			
CC[C@@](C)(NC(=O)[C@H](CC(C)C)NC(=O)CNC(=O)[C@@](C)(CC)NC(=O)C(C)(C)NC(=O)C(C)(C)NC(=O)C(C)(C)NC(=O)[C@H](CC(C)C)NC(C)=O)C(=O)NC(C)(C)C(=O)N1C[C@H](O)C[C@H]1C(=O)N[C@@H](CCC(N)=O)C(=O)N[C@](C)(CC)C(=O)N1C[C@H](O)C[C@H]1C(=O)NC(C)(C)C(=O)N[C@H](CO)Cc1ccccc1	> 100	> 100	> 100	> 100	Toxic		
CC[C@@](C)(NC(=O)[C@H](CC(C)C)NC(=O)CNC(=O)C(C)(C)NC(=O)C(C)(C)NC(=O)C(C)(C)NC(=O)C(C)(C)NC(=O)[C@H](CC(C)C)NC(C)=O)C(=O)NC(C)(C)C(=O)N1C[C@H](O)C[C@H]1C(=O)N[C@@H](CCC(N)=O)C(=O)N[C@](C)(CC)C(=O)N1C[C@H](O)C[C@H]1C(=O)NC(C)(C)C(=O)N[C@H](CO)Cc1ccccc1	> 100	> 100	> 100	> 100	Toxic		
CC[C@@](C)(NC(=O)[C@H](CC(C)C)NC(=O)CNC(=O)[C@@](C)(CC)NC(=O)C(C)(C)NC(=O)C(C)(C)NC(=O)C(C)(C)NC(=O)[C@@H](NC(C)=O)C(C)C)C(=O)NC(C)(C)C(=O)N1C[C@H](O)C[C@H]1C(=O)N[C@@H](CCC(N)=O)C(=O)N[C@](C)(CC)C(=O)N1C[C@H](O)C[C@H]1C(=O)NC(C)(C)C(=O)N[C@H](CO)Cc1ccccc1	> 100	> 100	> 100	> 100		75	
CC[C@@](C)(NC(=O)[C@H](CC(C)C)NC(=O)CNC(=O)[C@@](C)(CC)NC(=O)C(C)(C)NC(=O)C(C)(C)NC(=O)C(C)(C)NC(=O)[C@H](Cc1ccccc1)NC(C)=O)C(=O)NC(C)(C)C(=O)N1C[C@H](O)C[C@H]1C(=O)N[C@@H](CCC(N)=O)C(=O)N[C@](C)(CC)C(=O)N1C[C@H](O)C[C@H]1C(=O)NC(C)(C)C(=O)N[C@H](CO)Cc1ccccc1	32 (≈ 20.2 µM)	> 100	64 (≈ 40.3 µM)	64 (≈ 40.3 µM)			Toxic
CC[C@@](C)(NC(=O)[C@H](CC(C)C)NC(=O)CNC(=O)C(C)(C)NC(=O)C(C)(C)NC(=O)C(C)(C)NC(=O)C(C)(C)NC(=O)[C@@H](NC(C)=O)C(C)C)C(=O)NC(C)(C)C(=O)N1C[C@H](O)C[C@H]1C(=O)N[C@@H](CCC(N)=O)C(=O)N[C@](C)(CC)C(=O)N1C[C@H](O)C[C@H]1C(=O)NC(C)(C)C(=O)N[C@H](CO)Cc1ccccc1	> 100	> 100	> 100	> 100		70	
CC[C@@](C)(NC(=O)[C@H](CC(C)C)NC(=O)CNC(=O)C(C)(C)NC(=O)C(C)(C)NC(=O)C(C)(C)NC(=O)C(C)(C)NC(=O)[C@H](Cc1ccccc1)NC(C)=O)C(=O)NC(C)(C)C(=O)N1C[C@H](O)C[C@H]1C(=O)N[C@@H](CCC(N)=O)C(=O)N[C@](C)(CC)C(=O)N1C[C@H](O)C[C@H]1C(=O)NC(C)(C)C(=O)N[C@H](CO)Cc1ccccc1	64 (≈ 40.7 µM)	> 100	> 100	> 100			Toxic
